Assay results reported in US7276514B2, “Pyrroloquinoline quinone drugs for treatment of cardiac injury and methods of use thereof” (Charitable Leadership Foundation - Medical Technology …, priority 2002, dated 2007).
Entries after “also recorded” stand apart in the source; their conditions may differ.

How the values were obtained:
[1] = test system: adult mouse cardiac myocytes; assay: Toxicity of PQQ to cultured adult mouse cardiac myocytes under normoxic conditions; assay type: cell-based; conditions: 100 μM PQQ
Description: The invention encompasses methods of treating or preventing cardiac injury caused by hypoxia or ischemia in a subject, wherein PQQ is administered to a subject in need thereof, such that hypoxia or ischemic-related injury is prevented or decreased. In certain embodiments, the PQQ is administered at a concentration of less than about 10 μM. In other embodiments, the PQQ is administered at a concentration in the range of about 10 nM to about 10 μM, about 10 nM to about 1 μM, 100 nM to about 10 μM, and 100 nM to about 500 nM. In still other embodiments of the invention, the PQQ is administered at a concentration such that the concentration of PQQ at the site of cardiac tissue is in the range of 10 nM to about 10 μM. PQQ may also be administered as a function of the subject's body weight. In some embodiments of the invention, PQQ is administered at a concentration of between about 1 μg/kg to 1 g/kg of a subject's body weight, including less than 500 mg/kg, 250 mg/kg, 100 mg/kg, 10 mg/kg, 5 mg/kg, 2 mg/kg, 1 mg/kg, 500 μg/kg, 250 μg/kg, 100 μg/kg, 10 μg/kg, 5 μg/kg, 2 μg/kg or 1 μg/kg. […]
An in vitro model of cultured adult cardiac mouse myocytes was developed to study cardioprotection by PQQ. […] These cells can be used readily for determination of cell viability by trypan blue exclusion, and for biochemical, immunochemical, and molecular studies. […]

isolated mouse heart [2] = assay: Ex vivo isolated mouse heart (Langendorff), 20 min ischemia followed by 30 min reperfusion; conditions: 100 nM PQQ given at the time of onset of reperfusion
cardiac myocytes = assay: Cultured cardiac myocytes subjected to oxidative stress by H2O2; assay type: cell-based
Description: Cultured cardiac myocytes are subjected to oxidative stress by in vitro administration of H2O2. Two studies are done, one in which PQQ is added in concentrations between 10 nM and less than 10 μM to cardiac myocytes, after which H2O2 is added. In the other study, cardiac myocytes are subjected to insult in vitro admininstration of H2O2 for two hours, after which PQQ is added in concentrations between 10 nM and less than 10 μM. In both studies, PQQ is found to be protective.

isolated mouse heart [3] = assay: Ex vivo isolated mouse heart (Langendorff), 20 min ischemia followed by 30 min reperfusion
Description: Ex vivo studies were performed using an isolated mouse heart preparation employing the Langendorff technique. In this approach, the heart is removed and mounted on a perfusion apparatus in which drugs can be given via an aortic cannula. The heart is paced at a constant rate, and left ventricular developed pressure [LVDP; left ventricular systolic pressure minus left ventricular end-diastolic pressure], left ventricular end-diastolic pressure [LVEDP], and the maximum positive and negative first derivatives of left ventricular pressure [+dP/dtmax and −dP/dtmax] are recorded. The heart is equilibrated for 20 min. After drug or vehicle is infused, the heart is subjected to 20 min of ischemia [coronary flow completely stopped] followed by 30 min of reperfusion. Coronary sinus flow as a reflection of coronary blood flow is also measured. This protocol leads to severe myocardial injury as measured by hemodynamic parameters.

[4] = test system: adult cardiac mouse myocytes; assay: Cultured adult cardiac mouse myocytes exposed to severe hypoxia, viability by trypan blue exclusion; assay type: cell-based
Description: An in vitro model of cultured adult cardiac mouse myocytes was developed to study cardioprotection by PQQ. These cells are viable in culture for up to 48 hours at a physiologic pH and consist of >90% rod-shaped cells. These cells can be used readily for determination of cell viability by trypan blue exclusion, and for biochemical, immunochemical, and molecular studies. In this model, approximately 35% of the cells die when exposed to 0% oxygen in a hypoxia chamber for 2-3 hours. […] A higher concentration of PQQ (100 μM) is highly toxic under normoxic conditions as evidenced by 100% cell death.

[5] = 100 nM PQQ infused for 2 minutes prior to ischemia

Compound: O=C(O)c1cc(C(=O)O)c2c(n1)C(=O)C(=O)c1cc(C(=O)O)[nH]c1-2 [PQQ, Pyrroloquinoline quinone]
- toxicity to cultured adult mouse cardiac myocytes [1]: highly toxic; also recorded: observed
- cell death ([1]; normoxic conditions): 100%
- hemodynamic response when given at onset of reperfusion (PQQ tre.) (isolated mouse heart [2]): equivalent to pretreatment
- protection of cardiac myocytes against H2O2 oxidative stress (cardiac myocytes; PQQ between 10 nM and less than 10 μM added after two hours of H2O2): protective
- protection of cardiac myocytes against H2O2 oxidative stress (cardiac myocytes; PQQ between 10 nM and less than 10 μM added before H2O2): protective
- +dP/dtmax (isolated mouse heart [3]; [5]): track the LVDP results
- left ventricular developed pressure (LVDP) (isolated mouse heart [3]; [5]): significant preservation; also recorded: preserves
- left ventricular end-diastolic pressure (LVEDP) (isolated mouse heart [3]; [5]): preserves
- −dP/dtmax (isolated mouse heart [3]; [5]): track the LVDP results
- toxicity (FIG. 8) (isolated mouse heart [3]; 2 min pretreatment, 10 μM PQQ): toxicity occurs
- hemodynamic response (FIG. 8) (isolated mouse heart [3]; 2 min pretreatment, PQQ between 10 nM and 1 μM): progressively favorable responses
- infarct size (isolated mouse heart [3]; PQQ pretreatment at 10 μM): not reduced
- infarct size (isolated mouse heart [3]; PQQ pretreatment between 10 nM and 1 μM): progressive reduction
- coronary flow (isolated mouse heart [3]; PQQ pretreatment compared to control): significantly improved
- proportion of viable cells (trypan blue exclusion) after hypoxia ([4]; 1 μM PQQ added 1 hour before severe hypoxia (0% oxygen for 2-3 hours)): significant increase
- PQQ protection against hypoxia-induced cell death in presence of mitochondrial KATP channel inhibitor ([4]; 1 μM PQQ with 100 μM 5-hydroxydecanoic acid): not inhibited
- PQQ protection in presence of mitochondrial KATP channel inhibitor (FIG. 2 legend) ([4]; 10 μM 5-hydroxydecanoic acid): not inhibited
